Reference: patent US9618524B2, “Method, composition, isolation and identification of a plaque particle and related biomarker” (Plaxgen Inc., priority 2012, dated 2017)

Legend:
Assay in all cases: Mass spectroscopy proteomics, semi-quantitative binding affinity of serum proteins (plaqueproteome, Table 2)
Details in all cases: higher number = stronger affinity
[1] = target: T1, Abeta-42 plaque particles (Homo sapiens, UniProt P05067)
T1 construct: Abeta 1-42
Protocol: Next to isolate serum derived Abeta-42 plaque particles, the plasma or serum samples obtained from AD subjects were first centrifuged at 5,000 rpm for 5 min and the supernatants were transferred to new centrifuge tubes. Next, the supernatants were diluted in PBS to make 50% of the serum and plasma samples and used for incubation with Abeta-42 plaque oligomers/aggregates. Each assay was performed in 1 mL reaction (800 μL of 50% plasma or serum) and 200 μL (30 μg) of the Abeta-42 aggregates and the mixtures were incubated at 37° C. for 1 hr. To the mixture Thioflavin S dye (120 μg) was added and the sample was incubated for additional 30 min at 37° C. After the incubation, the mixture was directly used for sample acquisition using flow cytometer (FACS ARIA II, BD Biosciences, San Jose, Calif.). After initial detection of Abeta-42 plaque particles in the acquisition blot, gates were drawn in fluorescent dot blot to separately sort and isolate fluorescently labeled Abeta-42 particles.
(§1) For preparing trypsin digested peptide sequences, the isolated plaque particles were centrifuged at 10000 rpm for 5 min and the pellet containing plaque particles was resuspended in 100 μl PBS buffer. Stock solutions of digestion buffer (Ammonium Biocarbonate 50 mM), reducing buffer (DDT 100 mM) and alkylation buffer (lodoaceamide 100 mM) were prepared and stored at −20° C. for up to two months. For trypsin digestion, 100 μl of each plaque particles (2000 of Abeta-42, cholesterol, Tau and alpha-synuclein) were precipitated using cold acetone −80° C. by adding 4X's the volume. The samples were placed on dry ice for 10 min with intermittent vortex. Next, the samples were centrifuged at 4° C. at 10000 G for 10 min. Top layer of acetone was carefully removed from the tube with care not to disturb the plaque particles pellet. The samples were speed-vac for 10 min to ensure all acetone has been boiled away. The plaque particles pellet were reconstituted with 15 μl 8M Urea 100 mM Ammonium bicarbonate stock and 20 μl protease max solution. The protease max solution (Promega, Madison, Wis.) was prepared from stock by adding 60 μl 50 mM Ammonium bicarbonate and used for 3 solution digests (20 μl each). […] The tubes were incubated at 55° C. for 30 minutes. The tubes were then removed and brought to the room temperature followed by addition of 3.2 μl of 1M acrylamide and incubated at room temperature for 30 minutes. To the sample, 63 μL of 50 mM Ammonium bicarbonate was added for a final volume of 98 μl and 2 μl of trypsin (10 μg, Trypsin/Lys C Mix). After mixing the solution with pipet the samples were incubated at 37° C. overnight. After the overnight digest, the tryptic digest were quenched and acidified by adding 10 μl of 50% formic acid/water stock dilution. The samples were centrifuged at 10000 G for 2 minutes and purified using stage tip and used for MS/Mass analysis.
(§2) All MS/MS samples were analyzed using Sequest (Thermo Fisher Scientific, San Jose, Calif., USA; version 1.0). Sequest was set up to search the SUMS_uniprot_Human database (35847 entries) assuming the digestion enzyme strict trypsin. Sequest was searched with a fragment ion mass tolerance of 1.00 Da and a parent ion tolerance of 20 PPM. Propionamide of cysteine was specified in Sequest as a fixed modification. Oxidation of methionine and phospho of serine, threonine and tyrosine were specified in Sequest as variable modifications.
Scaffold (version Scaffold_4.2.1, Proteome Software Inc., Portland, Oreg.) was used to validate MS/MS based peptide and protein identifications. […] Protein probabilities were assigned by the Protein Prophet algorithm (Nesvizhskii, Al et al 2003). […] Proteins sharing significant peptide evidence were grouped into clusters. Proteins were annotated with GO terms from NCBI (downloaded Jan. 17, 2014).

[2] = target: T2, alpha-synuclein plaque particles (Homo sapiens, UniProt P37840)
T2 construct: 140 amino acids polypeptide
Protocol: To prepare oligomers/aggregates of human alpha-synuclein (140 amino acids polypeptide), 1 mg of the recombinant alpha-synuclein protein was suspended in 1 mL of PBS and the sample was incubated at 37° C. for 2 hrs. After incubation, all the samples were centrifuged for 5 min. at 5000 rpm to remove precipitate, if any, and the supernatant containing oligomers/aggregates were used in vitro plaque particles formation assay. For detecting alpha-synuclein plaque particles Thioflavin S (Ex/Em=430 nm/550 nm) amyloid binding fluorescent dye (10 μg) was used.
Similarly, to isolate alpha-synuclein plaque particles, diluted plasma or serum samples obtained from AD subjects were used for incubation with alpha-synuclein plaque oligomers/aggregates. Each assay was performed in 1 mL reaction (800 μL of 50% plasma or serum) and 200 μL (30 μg) of the alpha-synuclein aggregates and the mixtures were incubated at 37° C. for 1 hr. To the mixture Thioflavin S dye (120 μg) was added and the sample was incubated for additional 30 min at 37° C. After the incubation, the mixture was directly used for sample acquisition using flow cytometer (FACS ARIA II, BD Biosciences, San Jose, Calif.). After initial detection of alpha-synuclein plaque particles, gates were drawn in the acquisition blot to separately sort and isolate fluorescently labeled alpha-synuclein particles.
as §1, §2
Scaffold (version Scaffold_4.2.1, Proteome Software Inc., Portland, Oreg.) was used to validate MS/MS based peptide and protein identifications.

[3] = tested on: Low density cholesterol (Chl small) plaque particles; set-up: species or system human
Protocol: (§3) The goal was to isolate plaque particles synthesized in the bio-fluids in a relatively pure form to enable their subsequent use for identification of components that contribute to the plaque formation. In order to isolate cholesterol plaque particles, the plasma or serum samples obtained from atherosclerotic subjects were first centrifuged at 5,000 rpm for 5 min and the supernatants were transferred to new centrifuge tubes. Next, the supernatants were diluted in PBS to make 50% of the serum and used for incubation with cholesterol oligomers/aggregates. Each assay was performed in 1 mL reaction (800 μL of 50% plasma or serum) and 200 μL (30 μg) of the Cholesterol aggregates and the mixtures were incubated at 37° C. for 1 hr After the incubation, the mixture was directly used for sample acquisition using flow cytometer (FACS ARIA II, BD Biosciences, San Jose, Calif.). […] In order to isolate these fractions, three sets of gates were drawn in the acquisition blot to separately sort and isolate High density or high complex cholesterol particles, Low density or low complex cholesterol particles and both High and low density cholesterol particles together.
as §1, §2
(§4) Scaffold (version Scaffold_4.2.1, Proteome Software Inc., Portland, Oreg.) was used to validate MS/MS based peptide and protein identifications. […] Protein probabilities were assigned by the Protein Prophet algorithm (Nesvizhskii, Al et al 2003).

[4] = tested on: High Density cholesterol (Chl Large) plaque particles; set-up: species or system human
Protocol: as §3, §1, §2, §4

Tau plaque particles = tested on: Tau plaque particles; set-up: species or system human
Protocol: For Tau-74 (74-102) (Exon 3/Insert 2 domain) preparation, 1 mg of Tau-74 was suspended in 1 mL of PBS and the sample was incubated at 37° C. for 2 hrs. Similarly for preparing Tau-275 (275-305) (Repeat 2 domain) 1 mg of the peptide was suspended in 1 mL of PBS and the sample was incubated at 37° C. for 2 hrs. After incubation, all the samples were centrifuged for 5 min. at 5000 rpm to remove precipitate, if any, and the supernatant containing oligomers/aggregates were used for in vitro amyloid plaque particles formation assay. For detecting Tau plaque particles, Thioflavin S (Ex/Em=430 nm/550 nm) amyloid binding fluorescent dye (10 μg) was used in the assay.
Next, to isolate Tau plaque particles, as performed for Abeta-42 and Abeta-28 plaque particles isolation, diluted serum samples were used for incubation separately with Tau-45, Tau-74 and Tau-275 oligomers/aggregates. Each assay was performed in 1 mL reaction (800 μL of 50% plasma or serum) and 200 μL (30 μg) of each Tau aggregates and the mixtures were incubated at 37° C. for 1 hr. To the each mixture Thioflavin S dye (120 μg) was added and the sample was incubated for additional 30 min at 37° C. After the incubation, each sample was directly used for sample acquisition using flow cytometer (FACS ARIA II, BD Biosciences, San Jose, Calif.). After initial detection of Tau plaque particles, gates were drawn in the acquisition blot to separately sort and isolate fluorescently labeled Tau plaque particles.
as §1, §2

| Substance | Semi-quantitative analysis of proteins binding to different plaque particles: Abeta-42 [1] | Semi-quantitative analysis of proteins binding to different plaque particles: Synuclein [2] | Semi-quantitative analysis of proteins binding to different plaque particles: Chl small [3] | Semi-quantitative analysis of proteins binding to different plaque particles: Chl Large [4] | Semi-quantitative analysis of proteins binding to different plaque particles: Tau (Tau plaque particles) |
| --- | --- | --- | --- | --- | --- |
| Cluster of Alpha-2-macroglobulin | 32 | 44 | 43 | 43 | 45 |
| Cluster of Complement C3 | 63 | 71 | 67 | 73 | 85 |
| Cluster of Desmoplakin | 12 | 0 | 0 | 0 | 0 |
| Cluster of Haptoglobin | 25 | 24 | 31 | 29 | 26 |
| Cluster of Hemoglobin subunit beta | 4 | 5 | 2 | 3 | 3 |
| Cluster of Histone H1.2 | 2 | 0 | 0 | 0 | 0 |
| Cluster of Ig gamma-1 chain C region | 23 | 56 | 63 | 57 | 37 |
| Cluster of Ig heavy chain V-III region TEI | 7 | 4 | 6 | 5 | 5 |
| Cluster of Ig kappa chain V-I region HK102 | 5 | 1 | 1 | 1 | 1 |
| Cluster of Ig lambda-2 chain C regions | 9 | 8 | 9 | 5 | 11 |
| Cluster of Nucleolar RNA helicase 2 | 2 | 0 | 0 | 0 | 0 |
| Cluster of Platelet factor 4 | 2 | 1 | 0 | 1 | 1 |
| Coagulation factor XII | 0 | 1 | 0 | 0 | 1 |
